We go through 15 compounds from ChEMBL document CHEMBL4425188, “Synthesis and immunostimulatory activity of substituted TLR7 agonists” (Bioorg Med Chem Lett, 2016).

pEC50: −log10 of the molar value. Calls of active or inactive are those of the source. The rule behind the calls is not given here.

The target of test [1] is T1, Toll-like receptor 7 (Homo sapiens) (UniProt Q9NYK1).
T1 sequence (whole entry): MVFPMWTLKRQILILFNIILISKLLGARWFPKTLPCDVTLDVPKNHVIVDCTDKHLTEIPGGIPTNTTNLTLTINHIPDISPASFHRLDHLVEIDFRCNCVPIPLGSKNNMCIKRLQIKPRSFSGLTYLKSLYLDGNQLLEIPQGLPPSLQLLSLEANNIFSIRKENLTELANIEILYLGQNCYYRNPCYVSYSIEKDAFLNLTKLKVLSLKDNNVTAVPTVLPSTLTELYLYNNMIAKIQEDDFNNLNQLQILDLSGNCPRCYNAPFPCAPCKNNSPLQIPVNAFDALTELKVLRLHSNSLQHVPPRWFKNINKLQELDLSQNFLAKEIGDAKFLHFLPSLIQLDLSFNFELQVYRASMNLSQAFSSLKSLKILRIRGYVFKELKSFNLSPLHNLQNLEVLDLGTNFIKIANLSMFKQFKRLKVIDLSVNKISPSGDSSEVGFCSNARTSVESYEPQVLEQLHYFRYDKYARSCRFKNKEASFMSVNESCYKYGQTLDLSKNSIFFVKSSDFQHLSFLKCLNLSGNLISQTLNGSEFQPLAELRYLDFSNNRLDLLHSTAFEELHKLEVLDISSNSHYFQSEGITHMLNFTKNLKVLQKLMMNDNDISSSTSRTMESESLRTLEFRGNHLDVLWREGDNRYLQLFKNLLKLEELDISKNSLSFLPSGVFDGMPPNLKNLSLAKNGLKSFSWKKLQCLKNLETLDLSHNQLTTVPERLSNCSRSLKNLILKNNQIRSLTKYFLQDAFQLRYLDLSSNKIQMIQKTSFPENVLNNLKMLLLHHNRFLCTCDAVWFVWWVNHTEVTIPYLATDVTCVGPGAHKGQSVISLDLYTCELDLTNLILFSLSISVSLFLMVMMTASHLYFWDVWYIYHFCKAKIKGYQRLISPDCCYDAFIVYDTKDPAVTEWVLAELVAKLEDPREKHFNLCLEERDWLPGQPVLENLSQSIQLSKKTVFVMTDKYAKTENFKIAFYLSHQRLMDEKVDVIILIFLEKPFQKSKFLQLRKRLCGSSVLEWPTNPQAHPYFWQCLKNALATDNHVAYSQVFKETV
Kind of test: Agonist activity at human TLR7 expressed in HEK293 cells at <= 50 ng/ml by QUANTI-blue SEAP reporter gene assay. Type of test: cell-based.

The subject of the next test is HEK293. Kind of test: Induction of SEAP reporter gene expression in TLR-deficient HEK293 cells at 5 to 1000 ng/ml. Format: functional, cell-based. The conditions noted are these: Homo sapiens.
The species entered for another test is Homo sapiens. Put plainly: Immunostimulatory activity in CFSE-labeled human NK cells assessed as TLR7 agonist-induced cell proliferation at 2 to 200 nM after 6 days by FACS analysis. Type of test: functional. On the technique in general: A flow cytometer gives signals particle by particle.
Test [2] addresses T2, Toll-like receptor 9 (Homo sapiens) (UniProt Q9NR96).
T2 sequence (whole entry): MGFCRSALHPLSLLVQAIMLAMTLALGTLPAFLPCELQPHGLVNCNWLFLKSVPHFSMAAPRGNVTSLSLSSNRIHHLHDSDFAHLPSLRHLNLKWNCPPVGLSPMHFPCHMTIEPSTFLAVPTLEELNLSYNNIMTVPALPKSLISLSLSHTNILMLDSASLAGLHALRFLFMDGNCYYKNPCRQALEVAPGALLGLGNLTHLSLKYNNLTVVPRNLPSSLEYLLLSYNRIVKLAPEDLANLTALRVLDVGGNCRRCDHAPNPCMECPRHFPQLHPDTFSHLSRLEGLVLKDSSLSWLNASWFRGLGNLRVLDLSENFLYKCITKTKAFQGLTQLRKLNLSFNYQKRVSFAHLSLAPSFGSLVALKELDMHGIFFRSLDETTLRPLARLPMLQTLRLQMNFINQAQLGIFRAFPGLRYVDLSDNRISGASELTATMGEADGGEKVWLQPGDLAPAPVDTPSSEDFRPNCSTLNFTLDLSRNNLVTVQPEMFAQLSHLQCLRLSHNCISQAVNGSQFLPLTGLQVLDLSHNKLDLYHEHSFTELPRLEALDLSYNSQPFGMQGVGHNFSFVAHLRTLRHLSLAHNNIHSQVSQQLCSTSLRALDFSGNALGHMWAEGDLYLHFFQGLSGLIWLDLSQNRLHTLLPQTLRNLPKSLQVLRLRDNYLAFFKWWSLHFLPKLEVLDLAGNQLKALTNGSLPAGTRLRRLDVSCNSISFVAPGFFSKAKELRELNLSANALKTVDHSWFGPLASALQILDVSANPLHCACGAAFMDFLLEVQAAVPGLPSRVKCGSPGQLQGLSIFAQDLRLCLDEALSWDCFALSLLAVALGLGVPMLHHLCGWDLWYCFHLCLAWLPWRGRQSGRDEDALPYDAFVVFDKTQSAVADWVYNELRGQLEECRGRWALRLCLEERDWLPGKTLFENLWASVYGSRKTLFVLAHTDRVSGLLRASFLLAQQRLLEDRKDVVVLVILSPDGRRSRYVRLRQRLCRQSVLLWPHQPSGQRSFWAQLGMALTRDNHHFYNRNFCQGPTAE
Kind of test: Agonist activity at human TLR9 expressed in HEK293 cells at 5 to 1000 ng/ml by QUANTI-blue SEAP reporter gene assay. Type of test: cell-based. For orientation: A reporter such as luciferase makes a cellular process visible.

For test [3], the target named is T3, Toll-like receptor 8 (Homo sapiens) (UniProt Q9NR97).
T3 sequence (whole entry): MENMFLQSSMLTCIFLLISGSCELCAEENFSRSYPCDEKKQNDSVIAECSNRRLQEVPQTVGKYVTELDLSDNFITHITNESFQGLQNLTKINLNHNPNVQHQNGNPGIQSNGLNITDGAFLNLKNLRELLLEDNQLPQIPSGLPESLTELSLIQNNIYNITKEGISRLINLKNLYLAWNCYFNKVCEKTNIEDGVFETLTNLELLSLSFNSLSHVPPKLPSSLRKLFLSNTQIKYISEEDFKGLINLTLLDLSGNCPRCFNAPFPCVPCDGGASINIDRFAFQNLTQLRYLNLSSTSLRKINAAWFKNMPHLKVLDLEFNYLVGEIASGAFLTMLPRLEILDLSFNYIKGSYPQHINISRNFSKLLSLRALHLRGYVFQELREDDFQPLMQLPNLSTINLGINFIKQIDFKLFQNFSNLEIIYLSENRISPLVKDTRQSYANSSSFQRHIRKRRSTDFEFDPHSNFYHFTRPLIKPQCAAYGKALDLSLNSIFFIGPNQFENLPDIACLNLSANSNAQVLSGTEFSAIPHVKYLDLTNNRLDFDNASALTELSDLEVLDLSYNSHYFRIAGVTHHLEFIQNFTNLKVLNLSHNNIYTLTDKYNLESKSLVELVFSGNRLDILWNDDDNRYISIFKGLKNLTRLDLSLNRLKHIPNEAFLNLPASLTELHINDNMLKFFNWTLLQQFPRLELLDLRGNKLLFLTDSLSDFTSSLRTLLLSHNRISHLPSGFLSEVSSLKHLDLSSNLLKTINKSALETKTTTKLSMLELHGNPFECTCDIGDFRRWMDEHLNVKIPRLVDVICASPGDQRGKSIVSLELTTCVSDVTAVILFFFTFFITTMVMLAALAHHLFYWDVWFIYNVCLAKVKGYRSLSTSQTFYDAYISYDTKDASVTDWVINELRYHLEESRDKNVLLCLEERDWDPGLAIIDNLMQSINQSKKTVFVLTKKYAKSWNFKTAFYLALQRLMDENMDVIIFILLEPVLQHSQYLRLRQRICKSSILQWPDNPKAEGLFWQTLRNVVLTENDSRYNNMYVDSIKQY
Kind of test: Agonist activity at human TLR8 expressed in HEK293 cells at 5 to 1000 ng/ml by QUANTI-blue SEAP reporter gene assay. Type of test: cell-based.

For the next test, the system named is T-cell. Kind of test: Immunostimulatory activity in CFSE-labeled human T cells assessed as TLR7 agonist-induced cell proliferation at 2 to 200 nM after 6 days by FACS analysis. Format: functional, cell-based.
A further test deals with B cell. Kind of test: Immunostimulatory activity in CFSE-labeled human B cells assessed as TLR7 agonist-induced cell proliferation after 6 days by FACS analysis. Type of test: functional, cell-based. The conditions noted are these: 144 h.
Test [4] deals with T1, Toll-like receptor 7 (Homo sapiens). Kind of test: Agonist activity at human TLR7 expressed in HEK293 cells at 1 ng/ml by QUANTI-blue SEAP reporter gene assay. Format: cell-based.

By pEC50 is commonly meant the negative decadic logarithm of the EC50, by convention in mol/L. Regarding `CCCCOc1nc(N)c2nc(O)n(Cc3ccc(I)cc3)c2n1`, the result in test [1] was Active. Moreover, the result (in the test on HEK293; in the test listed under Homo sapiens; in test [2]; in test [3]; in the test with T-cell) was inactive. The pEC50 with B cell was 6.90.
`CCCCOc1nc(N)c2nc(SCc3ccccc3)n(Cc3ccccc3)c2n1`: the outcome (in the test on HEK293; in test [4]; in test [2]; in test [3]) was inactive.
In the case of `CCCCOc1nc(N)c2nc(S)n(Cc3ccccc3)c2n1`, the outcome in test [1] was Active. Further, the result (in the test on HEK293; in the test filed under Homo sapiens; in test [2]; in test [3]; with T-cell) was inactive. Further, the pEC50 in the test with B cell was 5.57.
For `CCCCOc1nc(N)c2nc(OCc3ccccc3)n(Cc3ccccc3)c2n1`, the result (in the test with HEK293; in test [4]; in test [2]; in test [3]) was inactive.
For `CCCCOc1nc(N)c2nc(O)n(Cc3ccc(C#CCO)cc3)c2n1`, the outcome in test [1] was Active. For the same compound, the outcome (in the test with HEK293; in the test listed under Homo sapiens; in test [2]; in test [3]; with T-cell) was inactive. For the same compound, the pEC50 in the test on B cell is 7.23.
In the case of `CCCCOc1nc(N)c2nc(SCC(=O)O)n(Cc3ccccc3)c2n1`, the result (in the test with HEK293; in test [4]; in test [2]; in test [3]) was inactive.
Consider `CCCCOc1nc(N)c2nc(SCCCCSc3nc4c(N)nc(OCCCC)nc4n3Cc3ccccc3)n(Cc3ccccc3)c2n1`, for which the outcome (with HEK293; in test [4]; in test [2]; in test [3]) was inactive.
As for `CCCCOc1nc(N)c2nc(SCc3ccc(Br)cc3)n(Cc3ccccc3)c2n1`, the outcome (in the test with HEK293; in test [4]; in test [2]; in test [3]) was inactive.
As for `CCCCOc1nc(N)c2nc(O)n(Cc3ccc(C(=O)O)cc3)c2n1`, the result in test [1] was Active. Besides, the result (with HEK293; in the test filed under Homo sapiens; in test [2]; in test [3]; in the test with T-cell) was inactive. Also, the pEC50 in the test on B cell is 6.32.
For `CCCCOc1nc(N)c2nc(O)n(Cc3ccc(C#CCN)cc3)c2n1`, in test [1], the outcome was Active. Further, the result (with HEK293; in test [2]; in test [3]) was inactive.
Turning to `CCCCOc1nc(N)c2nc(NCC)n(Cc3ccccc3)c2n1`, the result (in the test on HEK293; in test [2]; in test [3]) was inactive.
On to `CCCCOc1nc(N)c2nc(O)n(Cc3ccc(C(=O)NCCN)cc3)c2n1`, for which, in test [1], the result was Active. Besides, the result (in the test on HEK293; in the test listed under Homo sapiens; in test [2]; in test [3]; in the test on T-cell) was inactive. In the test on B cell, the pEC50 was 7.28.
As to `CCCCOc1nc(N)c2nc(O)n(Cc3ccc(C(=O)NCCOCCOCCN)cc3)c2n1`, the outcome in test [1] was Active. Also, the outcome (with HEK293; in the test filed under Homo sapiens; in test [2]; in test [3]; in the test on T-cell) was inactive. Further, in the test on B cell, the pEC50 was 7.59.
In the case of `CCCCOc1nc(N)c2nc(O)n(Cc3ccc(CCCN)cc3)c2n1`, the result in test [1] was Active. Also, the outcome (with HEK293; in test [2]; in test [3]) was inactive.
Regarding `CCCCOc1nc(N)c2nc(O)n(Cc3ccc(C(=O)NCCOCCOCCNC(=O)CCC(=O)N4Cc5ccccc5C#Cc5ccccc54)cc3)c2n1`, the outcome in test [1] was Active. The result (with HEK293; in test [2]; in test [3]) was inactive.
